# In patent US20230172925A1, “SKIN-CARE COMPOSITIONS AND USES THEREOF” (AHAVA - DEAD SEA LABORATORIES LTD., priority 2019, published 2023):
# Key:
# Format in all cases: cell-based
# IL-1α = experiment: Human skin organ culture with UVB stressor, IL-1α secretion in the medium; settings: UVB; OSM 0.5%, β-Caroten 15.6 ppm
# Protocol: (§1) Topical exposure till 48 hours in total (24 hr recovery following topical application+24 hr after exposure to UVB irradiation) with UVB radiation as stressor on human skin model
# (§2) The following general procedure was used in the study:
# (§3) Day 1: Topical application of 3 μl of each sample solution on the epidermis of each skin explant. Incubate for 24 hours. SDS 10% was applied only once, and was not farther irradiated with UVB.
# (§4) Day 2: Skin explants were washed once with PBS and irradiated with UVB lamp at 200 mJ/cm2. After radiation it was incubated for 30 min and then topically apply each treatment (sample solution) again. Control was not irradiated under UVB light. UVB radiated control was without any treatment except radiation.
# (§5) Day 3: Viability and Caspase3 activity were measured for the epidermis layer. The medium was collected for cytokines test.
# FIG. 5 illustrates the IL-1α secretion results in the medium as observed with 3 to 4 repetition of the tests. In FIG. 5 the IL-1α secretion of the irradiated sample “UVB” was selected as 100% and it equals 8.1±1.0 pg/ml.
# [1] = system: MatTek EFT-400 full thickness tissues; experiment: DNA microarray gene expression in skin equivalents, complex vs individual ingredients (Example 5); set-up: key to Genes up and downregulation in pathway: + = up-regulated; − = down-regulated; *non-significant down-regulation, thus, regulation is considered as non-affected (NA); settings: for Up-Regulated Genes (number): cut off of two fold change of adjusted Fold Change, 48 hours
# Protocol: MatTek EFT-400 full thickness tissues were used as the model for this study. Upon arrival, the full thickness tissues were placed into 6 wells plates with 2 ml of culture media and incubated overnight at 37±2° C. and 5±1% CO2. After this overnight incubation the culture media was replaced with 5 ml of fresh media and the tissues were treated topically with the test materials prepared in distilled water as follows:
# After the application of the test materials the tissues were incubated at 37±2° C. and […] for 48 hours.
# At the end of the treatment period, the tissues were rinsed and transferred to a 2 ml centrifuge tube containing 700 μl of lysis buffer and homogenized. After centrifuging at 14,000×g for 10 minutes at 4° C. the supernatant from each tube was transferred to a new 1.5 ml tube and mixed with and equal volume of 64% ethanol. After mixing the solutions was transferred to glass fiber filter cartridges and the cartridges were loaded into a 1.5 ml collection tube centrifuged for 1 minute at 14,000 RPM in a Napco 2002 Microcentrifuge with a DA-6T fixed angle rotor. The flow through was discarded and any remaining mixture was loaded into the filter cartridge and the centrifugation process was repeated until all of the mixture had been processed. The filter was then washed to remove any residual cellular debris from the RNA bound to the glass fibers by subsequently applying 700 μl of wash solution 1 (1 time) and 500 μl of wash solution 2 (2 times) to the filter cartridge and centrifuging at 14,000 RPM for 1 minute to pass each wash through the cartridge. After each wash, the flow through was discarded. After the final wash one final spin was performed without wash solution to remove any residual wash solution in the filter cartridge. The RNA bound to the glass fibers within the cartridge was then eluted by applying 40 μl of TE buffer (10 mM Tris-HCl, 1 mM EDTA, preheated to 70-80° C.) to the cartridge and centrifuging the cartridge in a new collection tube at 14,000 RPM for one minute. The elution process was then repeated a second time using 20 μl of TE buffer.
# First Strand cDNA Synthesis: To start the first strand synthesis, 10 μl of total RNA for each sample was added to a 600 μl PCR tube and the total volume of liquid in the tube will be adjusted to 11 μl with DEPC H2O. Next, 1 μl of T7 Oligo(dT) primer was added and the tube was incubated in a water bath at 70±2° C. for 10 minutes to denature the RNA and then placed on ice to allow the primers to anneal to the poly A ends of the mRNA. After cooling 2 μl of 10× first strand buffer, 1 μl of RNAse inhibitor and 4 μl of dNTP mix were added to each tube, and the tube was incubated at 42° C. in a hybridization oven (Labnet Problot). As soon as the tube was heated, 1 μl of Reverse Transcriptase was added and the tubes were returned to 42±2° C. for 2 hours. At the end of the two hours the tubes were briefly centrifuged to collect all of the fluid at the bottom of the tube and then placed on ice.
# Two tubes were prepared for the labeling process, one for Cy3 labeling (green) and one for Cy5 labeling (red). To the Cy3 tube 2 μg of aRNA prepared from the untreated/control sample (the actual color assignment for each sample is not important, but for consistency Cy3 is normally used for the untreated sample) and enough DEPC H2O was added to bring the total volume up to 4 μl. To the Cy5 tube 2 μg of aRNA prepared from the sample treated with the test material and enough DEPC H2O was added to bring the total volume up to 4 μl. To both tubes 5 μl of ASAP labeling buffer was added along with 1 μl of the specific dye for the tube (Cy3 or Cy5). The tubes were incubated for 15 minutes at 85±2° C. At the end of the 15 minutes the tubes were placed on ice to cool them and then add 2.5 μl of ASAP stop solution was added to each tube.
# TNFα = experiment: Human skin organ culture with UVB stressor, TNFα secretion in the medium; settings: UVB 200 mJ/cm2; irradiated sample = 100% (53±30 pg/ml); complex, DSE 3.0%, β-Caroten 15.6 ppm
# Protocol: as §1, §2, §3, §4, §5
# FIG. 4 illustrates the TNFα secretion results in the medium as observed with 2 to 4 repetition of the tests. In FIG. 4 the TNFα secretion of the irradiated sample “UVB” was selected as 100% and it equals 53±30 pg/ml.
# [2] = KEGG_NUCLEOTIDE_EXCISION_REPAIR
# [3] = KEGG_SIGNALING_PATHWAYS_REGULATING_PLURIPOTENCY_OF_STEM_CELLS
# [4] = WIKI_ASSEMBLY_OF_COLLAGEN_FIBRILS_AND_OTHER_MULTIMERIC_STRUCTURES
smiles,measurement,setting,value
"CC1=C(/C=C/C(C)=C/C=C/C(C)=C/C=C/C=C(C)/C=C/C=C(C)/C=C/C2=C(C)CCCC2(C)C)C(C)(C)CCC1 [β-Caroten, β-carotene]",increase in IL-1α secretion compared to the control,IL-1α,20%
same,z-score,[1]; KEGG_APOPTOSIS,−0.5665
same,z-score,[1]; KEGG_BASE_EXCISION_REPAIR,−1.4296
same,Genes up and downregulation in pathway,[1]; KEGG_CELL_CYCLE,−
same,z-score,[1]; KEGG_CELL_CYCLE,−2.4656
same,z-score,[1]; KEGG_CIRCADIAN_RHYTHM_MAMMAL,−1.209
same,z-score,[1]; KEGG_FATTY_ACID_BIOSYNTHESIS,−0.6185
same,z-score,[1]; KEGG_FATTY_ACID_DEGRADATION,−1.0292
same,z-score,[1]; KEGG_GLYCOLYSIS_GLUCONEOGENESIS,−1.0754
same,z-score,[1]; KEGG_NF_KAPPA_B_SIGNALING_PATHWAY,3.1522
same,Genes up and downregulation in pathway,[1]; [2],−
same,z-score,[1]; [2],−1.5901
same,z-score,[1]; KEGG_OXIDATIVE_PHOSPHORYLATION,3.5721
same,Genes up and downregulation in pathway,[1]; KEGG_P53_SIGNALING_PATHWAY,−
same,z-score,[1]; KEGG_P53_SIGNALING_PATHWAY,−1.6942
same,z-score,[1]; KEGG_PROTEASOME,1.1865
same,z-score,[1]; KEGG_RETINOL_METABOLISM,−0.6377
same,Genes up and downregulation in pathway,[1]; [3],−
same,z-score,[1]; [3],−2.818
same,z-score,[1]; KEGG_SPHINGOLIPID_METABOLISM,−0.4773
same,z-score,[1]; KEGG_TH1_AND_TH2_CELL_DIFFERENTIATION,1.3936
same,z-score,[1]; KEGG_TIGHT_JUNCTION,−0.07358
same,z-score,[1]; KEGG_TNF_SIGNALING_PATHWAY,5.6735
same,z-score,[1]; KEGG_T_CELL_RECEPTOR_SIGNALING_PATHWAY,1.5111
same,z-score,[1]; KEGG_WNT_SIGNALING_PATHWAY,−1.5459
same,z-score,[1]; WIKI_ACTIVATION_OF_MATRIX_METALLOPROTEINASES,0.8244
same,Genes up and downregulation in pathway,[1]; [4],−
same,z-score,[1]; [4],−5.9295
same,z-score,[1]; WIKI_COLLAGEN_BIOSYNTHESIS_AND_MODIFYING_ENZYMES,4.7943
same,"regulation of collagen synthesis and extracellular matrix pathways (Z-Score heatmap, in words)","[1]; WIKI_COLLAGEN_BIOSYNTHESIS_AND_MODIFYING_ENZYMES, WIKI_EXTRACELLULAR_MATRIX_ORGANIZATION, WIKI_DEGRADATION_OF_THE_EXTRACELLULAR_MATRIX, WIKI_COLLAGEN_DEGRADATION, WIKI_ASSEMBLY_OF_COLLAGEN_FIBRILS_AND_OTHER_MULTIMERIC_STRUCTURES",very much down regulated
same,z-score,[1]; WIKI_COLLAGEN_DEGRADATION,−5.0219
same,z-score,[1]; WIKI_DEGRADATION_OF_THE_EXTRACELLULAR_MATRIX,4.6457
same,Genes up and downregulation in pathway,[1]; WIKI_ELASTIC_FIBRE_FORMATION,−
same,z-score,[1]; WIKI_ELASTIC_FIBRE_FORMATION,−2.0745
same,z-score,[1]; WIKI_ELECTRON_TRANSPORT_CHAIN_IN_MITOCHONDRIA,2.7536
same,z-score,[1]; WIKI_EXTRACELLULAR_MATRIX_ORGANIZATION,4.5653
same,Genes up and downregulation in pathway,[1]; WIKI_KERATINIZATION,+
same,z-score,[1]; WIKI_KERATINIZATION,6.3972
same,z-score,[1]; WIKI_NRF2_PATHWAY,1.7004
same,z-score,[1]; WIKI_RESPIRATORY_ELECTRON_TRANSPORT_ATP_SYNTHESIS,2.2177
same,z-score,[1]; WIKI_SPHINGOLIPID_METABOLISM,−0.9459
same,Up-Regulated Genes (number),[1]; 19254 genes evaluated,196
same,Up-Regulated Genes (number),[1]; second column of Table 6,503
same,TNFα concentration as % of the irradiated skin explant,TNFα,70%
